The values below are quoted from earlier work in patent US10772323B2, “Benzoic acid herbicide composition” (NUFARM AUSTRALIA LIMITED, priority 2015, dated 2020).

For this data set the following is noted: acid form; 25° C.

Consider `COc1c(Cl)ccc(Cl)c1C(=O)O` [dicamba, 3,6-dichloro-2-methoxybenzoic acid], for which the water solubility result is recorded as “about 4500 mg/L”.
